From ChEMBL document CHEMBL2202965 (Bioorg Med Chem Lett, 2012)
Activity calls are given as the source filed them. No cut-off for these calls is given here. Non-standard residues stand in square brackets, D forms with d. Residues, ends and D or L forms follow the SMILES beside them. ξ: configuration not given here. *: point of attachment. NH(2-(1-naphthyl)ethyl) = c1ccc2c(CCN*)cccc2c1; Phe(4-CONH2) = NC(=O)c1ccc(C[C@H](N)C(=O)O)cc1; Phe(4-COOH) = N[C@@H](Cc1ccc(C(=O)O)cc1)C(=O)O; Tryptamide = c1ccc2c(CCN*)c[nH]c2c1; Tic = O=C(O)[C@@H]1Cc2ccccc2CN1; X3 = c1ccc(-c2ccc(CCN*)cc2)cc1; X2 = c1cc(C2CCCCC2)ccc1CCN*; ξTic = O=C(O)C1Cc2ccccc2CN1; X1 = c1ccc2cc(CCN*)ccc2c1; NHDecyl = CCCCCCCCCCN*; NHHex = CCCCCCN*

Tests used:
[1] = molecular target: Kappa-type opioid receptor (Cavia porcellus, UniProt P41144); assay: Displacement of [3H]U69,593 from kappa opioid receptor in guinea pig brain membrane after 2 hrs; format: cell membranes
[2] = Agonist activity at delta opioid receptor in guinea pig ileum; details: Cavia porcellus
[3] = molecular target: Delta-type opioid receptor (Homo sapiens) (UniProt P41143); assay: Antagonist activity at human delta opioid receptor expressed in HEK293 cells by [35S]GTP binding assay; format: functional, cell-based
[4] = molecular target: Delta-type opioid receptor (Mus musculus) (UniProt P32300); assay: Agonist activity at delta opioid receptor in mouse vas deferens relative to DPDPE; format: functional, tissue-based
Cavia porcellus [5] = species: Cavia porcellus; assay: Agonist activity at delta opioid receptor in guinea pig ileum at 10 uM; format: functional, tissue-based
[6] = molecular target: Delta-type opioid receptor (Rattus norvegicus) (UniProt P33533); assay: Displacement of [3H]DSLET from delta opioid receptor in rat brain membrane after 2 hrs relative to DPDPE; format: cell membranes
Cavia porcellus [7] = species: Cavia porcellus; assay: (§1) Partial agonist activity at delta opioid receptor in guinea pig ileum; format: functional
[8] = as §1; format: functional; details: Cavia porcellus
[9] = molecular target: Delta-type opioid receptor (Homo sapiens) (UniProt P41143); assay: Partial agonist activity at human delta opioid receptor expressed in HEK293 cells by [35S]GTP binding assay; format: functional, cell-based
[10] = molecular target: Delta-type opioid receptor (Homo sapiens) (UniProt P41143); assay: Agonist activity at human delta opioid receptor expressed in HEK293 cells by [35S]GTP binding assay relative to DPDPE; format: functional, cell-based

Chain of Kappa-type opioid receptor (P41144 whole entry): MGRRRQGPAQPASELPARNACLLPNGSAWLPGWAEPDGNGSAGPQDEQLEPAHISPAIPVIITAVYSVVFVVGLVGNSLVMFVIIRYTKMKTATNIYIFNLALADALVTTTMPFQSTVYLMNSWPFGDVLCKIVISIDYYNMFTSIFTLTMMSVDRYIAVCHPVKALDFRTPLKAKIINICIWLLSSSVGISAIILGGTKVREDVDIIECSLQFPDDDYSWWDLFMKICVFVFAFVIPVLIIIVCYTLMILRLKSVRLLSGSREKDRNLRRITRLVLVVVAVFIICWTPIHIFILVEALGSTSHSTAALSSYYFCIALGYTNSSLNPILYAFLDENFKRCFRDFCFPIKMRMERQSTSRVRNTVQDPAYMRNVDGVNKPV
Chain of Delta-type opioid receptor (Homo sapiens) (P41143 whole entry): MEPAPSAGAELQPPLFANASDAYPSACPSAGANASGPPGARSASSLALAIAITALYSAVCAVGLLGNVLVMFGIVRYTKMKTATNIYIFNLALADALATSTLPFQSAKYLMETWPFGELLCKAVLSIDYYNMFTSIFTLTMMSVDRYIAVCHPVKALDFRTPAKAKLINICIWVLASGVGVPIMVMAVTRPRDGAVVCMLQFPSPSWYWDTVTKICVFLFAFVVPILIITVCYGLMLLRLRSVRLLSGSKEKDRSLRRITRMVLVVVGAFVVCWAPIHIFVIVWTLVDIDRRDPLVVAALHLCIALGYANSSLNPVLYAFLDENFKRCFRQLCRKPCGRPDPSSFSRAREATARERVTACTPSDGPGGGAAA
Chain of Delta-type opioid receptor (Mus musculus) (P32300 whole entry): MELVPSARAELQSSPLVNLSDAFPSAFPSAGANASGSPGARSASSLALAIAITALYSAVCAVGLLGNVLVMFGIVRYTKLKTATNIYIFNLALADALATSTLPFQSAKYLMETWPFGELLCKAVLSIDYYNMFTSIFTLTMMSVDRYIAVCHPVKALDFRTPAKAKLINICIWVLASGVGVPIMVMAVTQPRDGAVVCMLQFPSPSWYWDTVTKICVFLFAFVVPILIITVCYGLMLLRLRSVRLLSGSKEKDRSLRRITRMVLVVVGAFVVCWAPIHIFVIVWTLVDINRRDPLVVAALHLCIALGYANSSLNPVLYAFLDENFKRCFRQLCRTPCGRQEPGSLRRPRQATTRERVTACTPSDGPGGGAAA
Chain of Delta-type opioid receptor (Rattus norvegicus) (P33533 whole entry): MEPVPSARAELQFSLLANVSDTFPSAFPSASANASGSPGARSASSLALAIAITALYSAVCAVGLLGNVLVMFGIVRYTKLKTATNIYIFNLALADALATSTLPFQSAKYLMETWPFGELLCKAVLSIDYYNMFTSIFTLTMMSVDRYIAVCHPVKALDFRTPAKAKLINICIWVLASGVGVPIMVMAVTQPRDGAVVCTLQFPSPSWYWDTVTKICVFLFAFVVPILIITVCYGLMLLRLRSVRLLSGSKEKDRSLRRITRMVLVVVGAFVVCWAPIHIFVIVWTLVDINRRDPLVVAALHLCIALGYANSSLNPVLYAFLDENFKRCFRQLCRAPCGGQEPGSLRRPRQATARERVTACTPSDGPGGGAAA

## N[C@@H](Cc1ccc(O)cc1)C(=O)N1Cc2ccccc2C[C@H]1C(=O)N[C@@H](Cc1ccccc1)C(=O)N[C@@H](Cc1ccccc1)C(=O)O (H-Y[Tic]FF-OH)
[1]
  Ki: > 10 µM
[2]
  IC50: > 10 µM
[3]
  Activity: Active

## NC(=O)c1ccc(C[C@H](N)C(=O)N2Cc3ccccc3C[C@H]2C(=O)N[C@@H](Cc2ccccc2)C(=O)N[C@@H](Cc2ccccc2)C(=O)O)cc1 (H-[Phe(4-CONH2)][Tic]FF-OH)
[1]
  Ki: > 10 µM
[3]
  Activity: Active

## N[C@@H](Cc1ccc(C(=O)NCCc2cccc3ccccc23)cc1)C(=O)N1Cc2ccccc2C[C@H]1C(=O)N[C@@H](Cc1ccccc1)C(=O)N[C@@H](Cc1ccccc1)C(=O)O (H-[Phe(4-COOH)](NH(2-(1-naphthyl)ethyl))[Tic]FF-OH)
[4]
  fold change (FC): 2
[1]
  Ki: > 10 µM
Cavia porcellus [5]
  Activity: inactive
[6]
  fold change (FC): 5

## CCCCCCCCCCNC(=O)c1ccc(C[C@H](N)C(=O)N2Cc3ccccc3C[C@H]2C(=O)N[C@@H](Cc2ccccc2)C(=O)N[C@@H](Cc2ccccc2)C(=O)O)cc1 (H-[Phe(4-COOH)](NHDecyl)[Tic]FF-OH)
[1]
  Ki: > 10 µM

## CCCCCCNC(=O)c1ccc(C[C@H](N)C(=O)N2Cc3ccccc3C[C@H]2C(=O)N[C@@H](Cc2ccccc2)C(=O)N[C@@H](Cc2ccccc2)C(=O)O)cc1 (H-[Phe(4-COOH)](NHHex)[Tic]FF-OH)
[1]
  Ki: > 10 µM

## N[C@@H](Cc1ccc(C(=O)NCCc2c[nH]c3ccccc23)cc1)C(=O)N1Cc2ccccc2C[C@H]1C(=O)N[C@@H](Cc1ccccc1)C(=O)N[C@@H](Cc1ccccc1)C(=O)O (H-[Phe(4-COOH)](Tryptamide)[Tic]FF-OH)
[1]
  Ki: > 10 µM
Cavia porcellus [7]
  Activity: Active

## N[C@@H](Cc1ccc(C(=O)NCCc2ccc3ccccc3c2)cc1)C(=O)N1Cc2ccccc2C[C@H]1C(=O)N[C@@H](Cc1ccccc1)C(=O)N[C@@H](Cc1ccccc1)C(=O)O (H-[Phe(4-COOH)](X1)[Tic]FF-OH)
[4]
  fold change (FC): 2
[1]
  Ki: > 10 µM
Cavia porcellus [7]
  Activity: Active
[6]
  fold change (FC): 5

## N[C@@H](Cc1ccc(C(=O)NCCc2ccc(C3CCCCC3)cc2)cc1)C(=O)N1Cc2ccccc2C[C@H]1C(=O)N[C@@H](Cc1ccccc1)C(=O)N[C@@H](Cc1ccccc1)C(=O)O (H-[Phe(4-COOH)](X2)[Tic]FF-OH) [listing 1 of 2 here]
[1]
  Ki: > 10 µM

## N[C@@H](Cc1ccc(C(=O)NCCc2ccc(C3CCCCC3)cc2)cc1)C(=O)N1Cc2ccccc2C[C@H]1C(=O)N[C@@H](Cc1ccccc1)C(=O)N[C@@H](Cc1ccccc1)C(=O)O (H-[Phe(4-COOH)](X2)[Tic]FF-OH) [listing 2 of 2 here]
[8]
  IC35: 0.0234 µM

## N[C@@H](Cc1ccc(C(=O)NCCc2ccc(-c3ccccc3)cc2)cc1)C(=O)N1Cc2ccccc2CC1C(=O)N[C@@H](Cc1ccccc1)C(=O)N[C@@H](Cc1ccccc1)C(=O)O (some centres not stated) (H-[Phe(4-COOH)](X3)[ξTic]FF-OH)
[1]
  Ki: > 10 µM
[9]
  ED50: 0.000413 µM
[10]
  Ratio: 0.678
